Measurements reported in patent publication US20110293643A1, “COMPOUNDS AND METHODS FOR INHIBITING MMP2 AND MMP9” (priority 2009, published 2011).

What was measured:
T cells [1] = test: cell viability after 1,10-phenanthroline treatment; assay type: cell-based, mouse; conditions: high phenanthroline concentrations
CD4+ T cells = test: anti-CD3 induced T cell proliferation (3H thymidine incorporation), CD4+ T cells; assay type: cell-based, mouse
Experimental: (§1) The non-specific MMP inhibitor, 1,10-phenanthroline (Sigma, St. Louis, Mo.) was reconstituted to 1 M solution in dimethyl sulfoxide (DMSO) and diluted to 0.001-0.1 μM in complete RPMI (cRPMI), composed of RPMI, […] L-glutamine, 100 U penicillin streptomycin (Gibco, Carlsbad, Calif.), 10% FCS (Hyclone, Logan, Utah), and 5×10^−5 M 2-mercaptoethanol (Sigma, St. Louis, Mo.).
(§2) CD4^+ or CD8^+ T cells were isolated from wild-type Balb/c or C57BL/6 mice (1×10^6/ml) and incubated with the indicated concentrations of MMPIs or vehicle control for 6 hours. The treated cells were then washed three times in RPMI and cultured (1×10^5/well) in a 96 well plate in 200 μl of cRPMI in the presence of anti-CD3 antibody (0.5-1 μg/ml, BD Biosciences, San Jose, Calif.) at 37° C. for 72 hours and harvested as previously reported (Sumpter et al., 2008). This generalized protocol was used to measure T cell proliferation of CD4^+ and CD8^+ T cells following the various isolation methods and treatment conditions indicated. In MMP deficient parallel studies, MMP2−/−, MMP9−/−, MMP2/9−/− mice and littermate controls were cultured in the presence of anti-CD3 antibody for 72 h. […] The cells were washed three times in RPMI and added at varying ratios (treated: untreated) in co-culture with untreated CD4^+25− T cells in the presence of γ-irradiated antigen presenting cells in 200 μl of cRPMI at 37° C. for 72 hours and harvested as previously reported (Sumpter et al., 2008).

rat = rat lung transplantation; cited from earlier work
Wistar-Kyoto rat = conditions: rat ischemia reperfusion injury, Iwata et al. 2008; cited from earlier work
IL-2 [2] = test: IL-2 transcript expression by quantitative RT PCR; assay type: cell-based, mouse; conditions: 10 μM, various time points, anti-CD3, CD4+ T cells (FIG. 6C, D)
Experimental: (§3) Purified CD4^+ T cells were incubated with the indicated concentrations of SB3-CT for 6 hours and then washed three times with RPMI 1640. Drug or vehicle-treated T cells were cultured (1×10^6/ml) with anti-CD3 antibody (0.5 μg/ml) in cRPMI for 1-12 hours. Cells were collected and total RNA was isolated using an RNeasy RNA extraction kit (Qiagen, Inc., Valencia, Calif.) and mRNA expression levels were detected with PerfeCTa™ SYBR Green FastMix, Low ROX (Quanta Biosciences, Gaithersburg, Md.) on a Applied Biosystems 7500 according to the manufacturer's instructions. Each sample was normalized to murine β-actin. Primer sequences were designed and optimized using routine methodologies to specifically amplify each cytokine based on publicly available sequences.

[3] = test system: OT-I transgenic CD8+ T cells; test: antigen-specific proliferation of OT-I transgenic CD8+ T cells with OVA-pulsed APCs; assay type: cell-based, mouse; conditions: 5-20 μM, SIINFEKL-pulsed APCs, 72 hours (FIG. 8A)
T cells [4] = test: cell viability by trypan blue exclusion and annexin V staining after SB-3CT; assay type: cell-based, mouse; conditions: following treatment with SB-3CT
Excerpt: The data described in the Examples herein thus far raise the possibility that SB-3CT-induced cytotoxicity or anergy could account for the observed effects on proliferation.

Foxp3 = Foxp3 transcript expression by quantitative RT PCR in CD4+ T cells; assay type: cell-based, mouse; conditions: 10 μM, anti-CD3, CD4+ T cells (FIG. 7B)
Experimental: as §3

CD25 = CD25 transcript expression by quantitative RT PCR in CD4+ T cells; assay type: cell-based, mouse; conditions: 5-20 μM, anti-CD3, vs vehicle (FIG. 5D)
Experimental: as §3

CD4+25− T cells = test: T cell suppressor assay with SB-3CT-treated CD4+25− T cells; assay type: cell-based, mouse
Experimental: as §2

CC10-OVA mice = test: antigen-specific CD8+ T cell mediated lung injury, adoptive transfer of treated OT-I cells into CC10-OVA mice; assay type: in vivo, mouse
Experimental: Lymph node and spleen were isolated from Thy1.1^+ OT-I transgenic mice and splenic CD8^+ T cells were isolated as stated above. […] 5×10^7 γ-irradiated wild-type splenocytes were cultured in 30 ml of 10% DMEM supplemented with 0.7 μg/ml of OVA peptide ([…]) for 5 min, followed by the addition of OT-1 Thy1.1^+ CD8^+ T cells (5×10^6), anti-CD28 antibody (2 μg/ml), IL-2 (132.02 U/ml) and IL-12 (10 ng/ml). On day 3, the cells were split and supplemented with more IL-2 (25 U/ml) in a final volume of 30 ml. On day 5, cells were harvested and prepared for adoptive transfer into CC10-OVA mice. Cells were resuspended in PBS, and 7.5×10^5 cells were intratracheally instilled into the lungs of CC10-OVA mice.
The lung was finely minced on ice, followed by a 60-90 minute digestion at 37° C. with collagenase/dispase (0.2 mg/ml of each) in RPMI medium with 5% fetal calf serum (FCS), in the presence of 25 μg/ml DNase. Cells were passed through a 70 μm cell strainer, washed, and lung lymphocytes were isolated by density centrifugation. Cells were resuspended in FACS buffer (10% BSA in PBS) and analyzed immediately on a FACScan flow cytometer (Beckton Dickinson). FCS Express (DeNovo Software, Los Angeles, Calif.) was used for further analysis.
BAL was collected from the lungs of wild-types and CC10 mice following adoptive transfer of vehicle and SB-3CT-treated OT-1 Tg T cells, by washing the mouse lung with 1.0 ml of sterile 1×PBS. Collected fluid was then centrifuged for 10 minutes at 2000 rpm. Cell pellets were resuspended in 200 μl of sterile 1×PBS. Cells were then stained with anti-GR1 antibody and analyzed immediately on a FACScan flow cytometer (Beckton Dickinson). FCS Express (DeNovo Software, Los Angeles, Calif.) was used for further analysis.
Lungs were perfused, inflated and fixed with neutral buffered formalin. The sections were then embedded in paraffin, sectioned, and stained with hematoxylin and eosin. Images were acquired at 20× using an Olympus microscope and DP12 digital camera (Olympus, Center Valley, Pa.).

IL-2 [5] = test: IL-2 protein expression by cytometric bead array; assay type: cell-based, mouse; conditions: 10 μM, various time points, anti-CD3, CD4+ T cells (FIG. 6C, D)
Experimental: Purified MMP9 deficient or SB-3CT-treated (10 μM) CD4^+ T cells were incubated for 6 hours and then washed three times with RPMI 1640. MMP9 deficient or SB-3CT-treated T cells were cultured (1×10^6/ml) with anti-CD3 antibody (0.5 μg/ml) in cRPMI for 1-12 hours. Supernatants were collected and cytokine protein levels were measured using the Mouse Inflammatory Cytokine Bead Array Kit (BD Biosciences, San Jose, Calif.) according to the manufacturer's instructions.

MMP9 [6] = biological target: T1, MMP9 (Mus musculus, UniProt P41245); test: MMP9 protein expression by gelatin zymography in CD8+ T cells; assay type: cell-based; conditions: 10 μM
T1 construct: Cell lysates and conditioned media supernatant were collected, concentrated to 4× and centrifuged; endogenous in cells; host or cells: primary splenic CD8+ T cells from wild-type C57BL/6 mice
Experimental: Cell lysates and conditioned media supernatant were collected, concentrated to 4× and centrifuged to remove any cell debris, and stored at −80° C. prior to assay. Samples were then subjected to zymography as reported previously (Yoshida et al., 2007).

NFATc1 = NFATc1 transcript expression by quantitative RT PCR in CD4+ T cells; assay type: cell-based, mouse; conditions: 5-20 μM, anti-CD3, vs vehicle (FIG. 5C)
Experimental: as §3

CD4+25+ T cells (Tregs) = test: T cell suppressor assay with SB-3CT-treated CD4+25+ T cells (Tregs); assay type: cell-based, mouse; conditions: 10 μM treated CD4+25+ T cells, varying ratios (FIG. 7E)
Experimental: as §2

CD8+ T cells [7] = test: anti-CD3 induced T cell proliferation (3H thymidine incorporation), CD8+ T cells; assay type: cell-based, mouse
Experimental: as §1
CD4^+ or CD8^+ T cells were isolated from wild-type Balb/c or C57BL/6 mice (1×10^6/ml) and incubated with the indicated concentrations of MMPIs or vehicle control for 6 hours. The treated cells were then washed three times in RPMI and cultured (1×10^5/well) in a 96 well plate in 200 μl of cRPMI in the presence of anti-CD3 antibody (0.5-1 μg/ml, BD Biosciences, San Jose, Calif.) at 37° C. for 72 hours and harvested as previously reported (Sumpter et al., 2008). This generalized protocol was used to measure T cell proliferation of CD4^+ and CD8^+ T cells following the various isolation methods and treatment conditions indicated. In MMP deficient parallel studies, MMP2−/−, MMP9−/−, MMP2/9−/− mice and littermate controls were cultured in the presence of anti-CD3 antibody for 72 h. […]

CD8+ T cells [8] = test: anti-CD3 induced intracellular calcium flux (Fluo-4 NW); assay type: cell-based, mouse; conditions: 10 μM
Experimental: Calcium flux was measured in CD4^+ and CD8^+ wild-type or MMP9 deficient or SB-3CT-treated (10 μM) T cells using the Fluo-4 NW Calcium Assay kit (Molecular Probes, Carlsbad, Calif.) in accord with the manufacturer's protocol. Cells were then stimulated with anti-CD3 antibody (10 μg/ml) and read in real time on a Molecular Devices FlexStation I (Sunnyvale, Calif.) for 300 seconds.

MMP9 [9] = biological target: MMP9 (Homo sapiens, UniProt P14780); conditions: Brown et al., 2000, Toth et al., Forbes et al., 2009; cited from earlier work
Chain of MMP9 (Homo sapiens, UniProt P14780) (P14780 94-707): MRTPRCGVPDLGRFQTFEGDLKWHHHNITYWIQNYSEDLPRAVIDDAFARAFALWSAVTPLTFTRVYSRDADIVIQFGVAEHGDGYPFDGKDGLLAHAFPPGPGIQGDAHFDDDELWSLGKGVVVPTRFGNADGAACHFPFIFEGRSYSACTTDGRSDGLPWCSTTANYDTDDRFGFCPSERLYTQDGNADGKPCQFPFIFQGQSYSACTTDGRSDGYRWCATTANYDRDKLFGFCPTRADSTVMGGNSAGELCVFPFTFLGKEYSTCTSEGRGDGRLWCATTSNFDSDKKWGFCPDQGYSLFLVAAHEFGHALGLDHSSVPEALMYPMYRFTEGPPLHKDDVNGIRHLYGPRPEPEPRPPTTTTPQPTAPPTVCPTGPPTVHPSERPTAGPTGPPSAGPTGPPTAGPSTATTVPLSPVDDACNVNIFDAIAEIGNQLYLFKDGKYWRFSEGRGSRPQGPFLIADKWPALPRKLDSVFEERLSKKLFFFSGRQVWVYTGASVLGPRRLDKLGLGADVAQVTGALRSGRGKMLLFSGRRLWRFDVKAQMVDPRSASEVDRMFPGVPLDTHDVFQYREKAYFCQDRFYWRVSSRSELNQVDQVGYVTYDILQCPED

T1 sequence (P41245 108-730): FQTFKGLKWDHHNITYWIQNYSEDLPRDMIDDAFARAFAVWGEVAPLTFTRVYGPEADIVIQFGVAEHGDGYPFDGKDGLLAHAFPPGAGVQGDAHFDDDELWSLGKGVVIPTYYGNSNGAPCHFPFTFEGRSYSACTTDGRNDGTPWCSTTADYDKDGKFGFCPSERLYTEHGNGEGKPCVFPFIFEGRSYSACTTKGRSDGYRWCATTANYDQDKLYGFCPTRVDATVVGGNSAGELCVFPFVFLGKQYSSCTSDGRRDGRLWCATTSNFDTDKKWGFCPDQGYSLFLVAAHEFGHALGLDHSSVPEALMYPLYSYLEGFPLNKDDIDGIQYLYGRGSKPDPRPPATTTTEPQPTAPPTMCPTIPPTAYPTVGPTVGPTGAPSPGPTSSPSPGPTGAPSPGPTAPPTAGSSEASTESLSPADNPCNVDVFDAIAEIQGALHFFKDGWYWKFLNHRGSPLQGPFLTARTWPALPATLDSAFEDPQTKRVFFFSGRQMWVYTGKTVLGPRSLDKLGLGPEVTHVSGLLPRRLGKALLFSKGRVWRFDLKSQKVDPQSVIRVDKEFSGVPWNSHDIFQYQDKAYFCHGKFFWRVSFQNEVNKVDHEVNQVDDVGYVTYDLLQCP

For `c1cnc2c(c1)ccc1cccnc12` [1,10-phenanthroline], the “cell viability after treatment” value (T cells [1]) was “cells were viable after treatment”, the T cell proliferation (CD4+ T cells; 0.001 μM, 6 hours, then soluble anti-CD3 antibody 72 hours (FIG. 2A)) was “proliferative response similar to untreated anti-CD3 antibody stimulated cells” and the T cell proliferation (CD4+ T cells; higher doses (up to 0.1 μM), 6 hours, then anti-CD3 72 hours, p<0.001 (FIG. 2A)) was “significantly abrogated the proliferative response”.

In the case of `NC(=O)C1=C(O)C[C@@H]2C[C@@H]3Cc4cccc(O)c4C(=O)C3=C(O)[C@]2(O)C1=O` [COL-3], the “intragraft B cell hyperplasia” value (rat) is listed as “induce intragraft B cell hyperplasia”, the “antigenic collagen (V) in bronchoalveolar lavage” value (Wistar-Kyoto rat) is listed as “lower levels” and the inflammation factors (Wistar-Kyoto rat) is listed as “reduced inflammation factors”. For the same molecule, the T cell proliferation (CD4+ T cells; 1 μM, 6 hours, then anti-CD3 72 hours (FIG. 2B)) was “proliferative response similar to the untreated control” and the T cell proliferation (CD4+ T cells; higher doses (up to 100 μM), p<0.001 (FIG. 2B)) was “dose-dependent decrease in T cell proliferation”.

In the case of `O=S(=O)(CC1CS1)c1ccc(Oc2ccccc2)cc1` (stereo not drawn) [SB-3CT], the IL-2 transcript expression (IL-2 [2]) is reported as “increased over time”, the antigen-specific proliferation [3] is reported as “completely abrogated the proliferative response” and the cell viability (T cells [4]) is reported as “greater than 90%”. For the same molecule, the foxp3 transcripts (Foxp3) was “increased”, the CD25 transcript expression (CD25) was “abrogated NFATc1 and CD25 transcript expression in a dose-dependent manner” and the inhibition at 10 µM (CD4+25− T cells; Mus musculus, T-cell, 10 μM treated CD4+25− cells, each ratio with untreated CD4+25− T cells, 72 hours (FIG. 7D), read-out: inhibition of T cell proliferation in co-culture) was 50%. For the same molecule, the “induction of regulatory T cell function” value (CD4+25− T cells; increasing ratio of SB-3CT-treated cells (FIG. 7D)) was “does not induce regulatory T cell function”, the “lung histology, mononuclear cellular infiltration” value (CC10-OVA mice; H&E lung sections after adoptive transfer of treated OT-1 cells) was “mononuclear cellular infiltration was minimal” and the “quantity of total BAL cells” value (CC10-OVA mice; seven days after adoptive transfer of 10 μM treated OT-I cells, vs vehicle (FIG. 8B)) was “no differences”. The “quantity of neutrophils (Gr-1+) in BAL” value (CC10-OVA mice; seven days after adoptive transfer, vs vehicle, p<0.01 (FIG. 8C)) was “decreased significantly”, the “CD8+ Thy1.1+ (donor) cells in lung parenchyma” value (CC10-OVA mice; vs vehicle, p<0.01 (FIG. 9A)) was “significantly fewer” and the “CD25 expression on CD8+ Thy1.1+ T cells in lung” value (CC10-OVA mice; vs vehicle, p<0.01 (FIG. 9B)) was “fewer of these cells expressed the activation marker CD25”. The IL-2 protein expression (IL-2 [5]) was “down regulated”, the MMP9 protein expression (MMP9 [6]) was “decreased” and the NFATc1 transcript expression (NFATc1) was “abrogated NFATc1 and CD25 transcript expression in a dose-dependent manner”. The “suppressive function of treated Tregs” value (CD4+25+ T cells (Tregs)) was “retained their suppressive function”, the T cell proliferation (CD8+ T cells [7]; 5-25 μM, anti-CD3 72 h, vs vehicle-treated cells (FIG. 2D)) was “dose-dependent decrease in proliferation” and the “T cell proliferation with exogenous IL-2” value (CD8+ T cells [7]; anti-CD3 plus exogenous murine IL-2, 72 h (FIG. 2F)) was “partial recovery of the proliferative response”. The “calcium influx in calcium containing media” value (CD8+ T cells [8]; calcium containing media, anti-CD3 (FIG. 4D)) was “dramatic influx of exogenous calcium”, the “intracellular calcium flux (release from the ER)” value (CD8+ T cells [8]; calcium-free media, anti-CD3 10 μg/ml (FIG. 4C)) was “increased intracellular calcium flux” and the “mode of MMP9 inhibition” value (MMP9 [9]) was “tight-binding inhibition”. The T cell proliferation (CD4+ T cells; 5-25 μM, anti-CD3 72 h, vs vehicle-treated cells (FIG. 2C)) was “dose-dependent decrease in proliferation” and the “T cell proliferation with exogenous IL-2” value (CD4+ T cells; anti-CD3 plus exogenous murine IL-2, 72 h (FIG. 2E)) was “partial recovery of the proliferative response”.

For “TIMP-1: tissue-inhibitor of metalloproteinases”, the “delayed type hypersensitivity responses to donor antigens and type V collagen” value (rat) is listed as “differential effects” and the rejection pathology (rat) is listed as “neither affected the onset of rejection pathology”.
